How the values were obtained:
Format in all cases: in vivo, Eimeria (in Cobb broiler chickens)
[1] = system: seven homologous strains of each of the seven species of Eimeria; assay: Vaccine trial in Cobb broiler chickens, homologous challenge
Source text: (§1) The vaccine of Example 3 was used in a trial conducted on 4,480 Cobb broiler chickens kept in floor pens. The concentration of xanthan gum in the vaccine was adjusted so that administration of 140 doses of vaccine to each drinking vessel provided a final xanthan gum concentration of 0.03%. The trial was designed to compare the performance of birds vaccinated with live attenuated coccidiosis vaccine of the invention and birds fed the coccidiostat, monensin, in the face of a challenge with seven homologous or seven heterologous strains of each of the seven species of Eimeria. The heterologous strains were chosen on the basis that they were either thought to be more pathogenic than the homologous ones or antigenically distinct.
(§2) Birds were penned in groups of 140. Four pens were allocated to each treatment and two pens were allocated to each control group. […] The allocation of pens to treatment was randomised throughout the broiler house. The design of the trial was as follows:
(§3) The vaccine was administered via the drinking water. The birds were fed a ration based on a commercial formulation which included the antibiotic growth promoter avoparcin at 10 ppm. The anticoccidial drugs were administered in the feed.
(§4) It should be noted that, in order to prevent infection by wild Eimeria strains, and consequent development of immunity, the two control groups were fed robenidine (30 ppm) for 28 days. One group received a heterologous challenge and the other received a homologous challenge.
(§5) All birds received an individual oral challenge administered by inoculation into the crop on day 31. The numbers of oocysts of each species in the challenge doses were as follows:—
(§6) Liveweights and cumulative feed intakes were measured on days 30, 37 and 49. Feed conversion ratios were calculated by dividing the feed intake by the gain in liveweight from day 1. Counts of oocysts in the litter were made for each pen at weekly intervals. On day 37, a sample of 5 birds from each pen (total 160) was culled and coccidiosis lesion scores were estimated. Scores were made on a scale of 0 to 3.5 in ascending severity of the lesions symptomatic of infection with E. acervulina, E. brunetti, E. maxima/necatrix (grouped together because they are difficult to distinguish) and E. tenella. Mean lesion scores were calculated.

[2] = system: seven homologous or seven heterologous strains of each of the seven species of Eimeria; assay: Vaccine trial in Cobb broiler chickens, overall (homologous and heterologous challenge)
Source text: as §1, §2
The vaccine was administered via the drinking water. The birds were fed a ration based on a commercial formulation which included the antibiotic growth promoter avoparcin at 10 ppm. […]
Liveweights and cumulative feed intakes were measured on days 30, 37 and 49. Feed conversion ratios were calculated by dividing the feed intake by the gain in liveweight from day 1. […] Mean lesion scores were calculated.

[3] = system: seven heterologous strains of each of the seven species of Eimeria; assay: Vaccine trial in Cobb broiler chickens, heterologous challenge
Source text: as §1, §2, §3, §4, §5, §6

CC[C@@]1([C@@H]2O[C@@H]([C@H]3O[C@@](O)(CO)[C@H](C)C[C@@H]3C)C[C@@H]2C)CC[C@H]([C@]2(C)CC[C@]3(C[C@H](O)[C@@H](C)[C@@H]([C@@H](C)[C@@H](OC)[C@H](C)C(=O)O)O3)O2)O1 [Monensin, monensin]
Mean Lesion Score E. acervulina ([1]; Homologous challenge, day 37, scale of 0 to 3.5, control 0.2): 0
Mean Lesion Score E. brunetti ([1]; Homologous challenge, day 37, scale of 0 to 3.5, control 0.40): 0.03
Mean Lesion Score E. maxima/necatrix ([1]; Homologous challenge, day 37, scale of 0 to 3.5, control 1.25): 0.13
Mean Lesion Score E. tenella ([1]; Homologous challenge, day 37, scale of 0 to 3.5, control 2.25): 0.20
LIVEWEIGHTS ([1]; day 49, Homologous Challenge on day 31, control 2225): 2489 g/bird
Lesion scores after either homologous or heterologous challenge ([2]; compared with controls): lower lesion scores
Protecting against coccidial challenge (performance of the birds, overall) ([2]; vaccine compared with monensin): equally effective
Mean Lesion Score E. acervulina ([3]; Heterologous challenge, day 37, scale of 0 to 3.5, control 0.30): 0.10
Mean Lesion Score E. brunetti ([3]; Heterologous challenge, day 37, scale of 0 to 3.5, control 0.70): 0
Mean Lesion Score E. maxima/necatrix ([3]; Heterologous challenge, day 37, scale of 0 to 3.5, control 2.00): 0.95
Mean Lesion Score E. tenella ([3]; Heterologous challenge, day 37, scale of 0 to 3.5, control 2.65): 1.53
Counts of oocysts in the litter, pens of monensin treated birds relative to pens of vaccinated birds ([3]; after challenge with heterologous strains, on average, very high pen to pen variation): two or three times higher
LIVEWEIGHTS ([3]; day 49, Heterologous Challenge on day 31, control 2197): 2407 g/bird
Lesion scores for heterologous E. maxima/necatrix ([3]; in each case lower than the controls): Slightly elevated scores

Reference: patent publication US20060165731A1, “Vaccines” (British Technology Group Ltd., priority 1986, published 2006)
